These results are taken from patent US9079910B2, “5-(1,2,3-triazol-4-yl)-7H-pyrrolo[2,3-D]pyrimidine derivatives” (Merck Patent GmbH, priority 2011, dated 2015).

Assay [1] relates to A2780. Kind of assay: Vitality assay (tumour cell proliferation/vitality, Alamar Blue), A2780. The settings on record: Homo sapiens, 96 h, A2780 cells, 4 days. It is filed as cell-based. The method, then:
(§1) In the present experiment description, the inhibition of tumour cell proliferation/tumour cell vitality by active compounds is described.
(§2) The cells are sown in a suitable cell density in microtitre plates (96-well format) and the test substances are added in the form of a concentration series. After four further days of cultivation in serum-containing medium, the tumour cell proliferation/tumour cell vitality can be determined by means of an Alamar Blue test system.
(§3) The cells are cultivated in medium. At intervals of several days, the cells are detached from the culture dishes with the aid of trypsin solution and sown in suitable dilution in fresh medium. The cells are cultivated at 37° Celsius and 10% CO2. […]
(§4) In each case, 20 μl of Alamar Blue reagent are added per well, and the microtitre plates are incubated, for example, for a further seven hours in a CO2 incubator (at 37° C. and 10% CO2). The plates are measured in a reader with a fluorescence filter at a wavelength of 540 nm. […]
(§5) The absorbance value of the medium control (no cells and test substances used) is subtracted from all other absorbance values. The controls (cells without test substance) are set equal to 100 percent, and all other absorbance values are set in relation thereto (for example in % of control):
(§6) IC50 values (50% inhibition) are determined with the aid of statistics programs, such as, for example, RS1.
A general note: Resazurin is reduced to fluorescent resorufin, in cell work by metabolically active cells.

Assay [2] deals with T1, PDK1 (Homo sapiens, UniProt O15530).
T1 construct: His6 (N)
T1 sequence (O15530 51-556 limits assumed): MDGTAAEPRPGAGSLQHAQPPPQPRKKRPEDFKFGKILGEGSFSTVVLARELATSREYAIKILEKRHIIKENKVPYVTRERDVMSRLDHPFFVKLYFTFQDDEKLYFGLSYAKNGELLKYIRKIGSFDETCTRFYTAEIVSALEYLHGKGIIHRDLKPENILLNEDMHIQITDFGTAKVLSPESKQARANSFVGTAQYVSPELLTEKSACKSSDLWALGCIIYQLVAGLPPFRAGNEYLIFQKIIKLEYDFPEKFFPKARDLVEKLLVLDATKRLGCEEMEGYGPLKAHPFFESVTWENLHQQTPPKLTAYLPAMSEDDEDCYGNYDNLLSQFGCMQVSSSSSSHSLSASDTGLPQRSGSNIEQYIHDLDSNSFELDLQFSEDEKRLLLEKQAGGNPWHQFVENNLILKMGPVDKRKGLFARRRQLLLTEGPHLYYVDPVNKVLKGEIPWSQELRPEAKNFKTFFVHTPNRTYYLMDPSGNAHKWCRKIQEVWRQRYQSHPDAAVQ
Kind of assay: Test for the inhibition of PDK1 (flashplate, 33P-ATP). It is filed as biochemical. The conditions noted are these: His6-PDK1, 4 μM ATP, 30° C., 60 min. The method, then: 4.0 Test for the Inhibition of PDK1
The experimental batches are carried out in a flashplate system with 384 wells/microtitration plate.
In each case, the PDK1 sample His6-PDK1(1-50)(3.4 nM), the PDK1 substrate biotin-bA-bA-[…] (400 nM), 4 μM ATP (with 0.2 μCi of ^33P-ATP/well) and the test substance in 50 μl of conventional experimental solution per well are incubated at 30° C. for 60 min. The test substances are employed in corresponding concentrations (if desired in a dilution series). The control is carried out without test substance. The reaction is stopped using standard methods and washed. The activity of the kinase is measured via the incorporated radioactivity in top count. In order to determine the non-specific kinase reaction (blank value), the experimental batches are carried out in the presence of 100 nM staurosporine.
The radioactivity (decompositions per minute) of the blank value (no use of test substance in the presence of staurosporine) is subtracted from all other radioactivity values. The controls (kinase activity without test substance) are set equal to 100 percent and all other radioactivity values (after subtracting the blank value) are expressed set in relation thereto (for example in % of the control).
IC50 values (50% inhibition) are determined with the aid of statistics programmes, such as, for example, RS1.

The target in assay [3] is T2, IKKepsilon (Homo sapiens, UniProt Q14164).
T2 sequence (Q14164 1-716): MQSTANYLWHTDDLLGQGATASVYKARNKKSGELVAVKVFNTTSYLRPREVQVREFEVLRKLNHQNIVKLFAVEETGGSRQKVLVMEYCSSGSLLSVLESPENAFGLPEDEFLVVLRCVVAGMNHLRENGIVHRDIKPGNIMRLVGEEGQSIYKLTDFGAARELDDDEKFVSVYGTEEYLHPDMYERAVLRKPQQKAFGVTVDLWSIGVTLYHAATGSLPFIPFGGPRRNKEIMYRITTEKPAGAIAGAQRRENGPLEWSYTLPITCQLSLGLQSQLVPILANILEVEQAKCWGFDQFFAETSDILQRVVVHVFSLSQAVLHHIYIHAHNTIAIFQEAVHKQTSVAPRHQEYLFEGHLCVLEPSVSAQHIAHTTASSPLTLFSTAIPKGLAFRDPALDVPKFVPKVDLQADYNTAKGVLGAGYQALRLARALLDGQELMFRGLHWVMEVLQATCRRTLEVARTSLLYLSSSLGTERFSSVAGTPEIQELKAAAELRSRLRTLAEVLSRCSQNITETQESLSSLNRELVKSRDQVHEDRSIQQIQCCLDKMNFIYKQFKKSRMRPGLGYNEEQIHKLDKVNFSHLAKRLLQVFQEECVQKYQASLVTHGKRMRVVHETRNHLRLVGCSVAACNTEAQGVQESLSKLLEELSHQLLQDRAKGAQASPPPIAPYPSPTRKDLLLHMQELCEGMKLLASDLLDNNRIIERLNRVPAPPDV
Kind of assay: IKK kinase test (IKKepsilon) (384-well flashplate assay). It is filed as biochemical. The conditions noted are these: 1 nM IKK, 10 μM ATP, 30° C., 120 min. The method, then:
IKK—Kinase Test (IKKepsilon)
The kinase assay is performed as 384-well flashplate assay.
1 nM IKK, 800 nM biotinylated I B (19-42) peptide (biotin-C6-C6-[…]) and 10 μM ATP (with 0.3 μCi of ^33P-ATP/well) are incubated in a total volume of 50 μl (10 mM MOPS, 10 mM magnesium acetate, 0.1 mM EGTA, 1 mM dithiothreitol, 0.02% of Brij35, 0.1% of BSA, 0.1% of BioStab, pH 7.5) with or without test substance at 30° C. for 120 min. The reaction is stopped using 25 μl of 200 mM EDTA solution, filtered off with suction after 30 min at room temperature, and the wells are washed 3 times with 100 μl of 0.9% NaCl solution. The non-specific proportion of the kinase reaction (blank) is determined using 3 μM BX-795. Radioactivity is measured in the Topcount. IC50 values are calculated using RS1.

The target of assay [4] is T3, TANK binding kinase (TBK1) (Homo sapiens, UniProt Q9UHD2).
T3 sequence (Q9UHD2 1-729): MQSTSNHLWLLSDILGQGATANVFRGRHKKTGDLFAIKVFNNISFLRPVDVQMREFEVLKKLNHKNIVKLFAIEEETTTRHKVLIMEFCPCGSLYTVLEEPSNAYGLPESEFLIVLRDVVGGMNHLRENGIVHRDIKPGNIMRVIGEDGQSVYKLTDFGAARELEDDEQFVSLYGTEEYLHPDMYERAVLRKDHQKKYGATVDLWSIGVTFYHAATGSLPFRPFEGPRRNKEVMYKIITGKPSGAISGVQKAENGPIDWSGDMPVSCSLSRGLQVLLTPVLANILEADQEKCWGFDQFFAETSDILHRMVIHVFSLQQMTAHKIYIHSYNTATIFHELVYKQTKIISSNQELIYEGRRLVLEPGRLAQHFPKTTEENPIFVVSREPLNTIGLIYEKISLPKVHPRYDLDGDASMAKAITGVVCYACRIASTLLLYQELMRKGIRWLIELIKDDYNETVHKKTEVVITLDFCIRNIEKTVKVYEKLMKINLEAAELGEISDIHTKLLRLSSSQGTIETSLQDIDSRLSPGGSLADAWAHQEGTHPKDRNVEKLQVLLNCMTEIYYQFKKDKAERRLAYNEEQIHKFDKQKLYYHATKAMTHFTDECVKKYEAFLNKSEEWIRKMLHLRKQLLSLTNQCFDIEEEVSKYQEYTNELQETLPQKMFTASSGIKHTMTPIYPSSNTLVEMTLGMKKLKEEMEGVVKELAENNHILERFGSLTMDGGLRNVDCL
As to the kind of experiment: TBK1 kinase test (384-well flashplate assay). The settings on record: 0.6 nM TBK1, 10 μM ATP, 30° C., 120 min. It is filed as biochemical. The method, then:
The kinase assay is performed as 384-well flashplate assay. 0.6 nM TANK binding kinase (TBK1), 800 nM biotinylated MELK-derived peptide (biotin-Ah-Ah-[…]) and 10 μM ATP (with 0.25 μCi of ^33P-ATP/well) are incubated in a total volume of 50 μl (10 mM MOPS, 10 mM magnesium acetate, 0.1 mM EGTA, 1 mM DTT, 0.02% of Brij35, 0.1% of BSA, pH 7.5) with or without test substance at 30° C. for 120 min. The reaction is stopped using 25 μl of 200 mM EDTA solution, filtered off with suction after 30 min at room temperature, and the wells are washed 3 times with 100 μl of 0.9% NaCl solution. The non-specific proportion of the kinase reaction (blank) is determined using 100 nM staurosporine. Radioactivity is measured in the Topcount. IC50 values are calculated using RS1.

Assay [5] has as its system HCT 116. As to the kind of experiment: Vitality assay (tumour cell proliferation/vitality, Alamar Blue), HCT 116. It is filed as cell-based. The conditions noted are these: Homo sapiens, 96 h, HCT 116 cells, 4 days. The method, then:
as §1, §2, §3, §4, §5, §6

pIC50: −log10 of the molar value.

The term pIC50 denotes −log10 of the IC50, conventionally taken in molar units. A lower pIC50 goes with a large IC50. For `COCCOc1ncnc2[nH]cc(-c3cn(Cc4ccccc4)nn3)c12` [Compound A1, 5-(1-benzyl-1H-1,2,3-triazol-4-yl)-4-(2-methoxyethoxy)-7H-pyrrolo[2,3-d]pyrimidine], the pIC50 in assay [1] was 5.00 to 6.00; in assay [2], 6.00 to 8.00; in assay [3], 5.00 to 6.00; in assay [4] it was 6.00 to 8.00; in assay [5], 5.00 to 6.00.

`COc1ncnc2[nH]cc(-c3cn(Cc4ccccc4)nn3)c12` [Compound A2]: the pIC50 in assay [2], in assay [3] and in assay [4] was 6.00 to 8.00 each time.

For `c1ccc(Cn2cc(-c3c[nH]c4ncncc34)nn2)cc1` [Compound A6, 5-(1-benzyl-1H-1,2,3-triazol-4-yl)-7H-pyrrolo[2,3-d]pyrimidine], the pIC50 in assay [2], in assay [3] and in assay [4] was 5.00 to 6.00 each time.

Regarding `Fc1cccc(C(CCN2CCCCC2)n2cc(-c3c[nH]c4ncncc34)nn2)c1F` (centres unmarked) [Compound A9, 5-{1-[1-(2,3-difluorophenyl)-3-piperidin-1-ylpropyl]-1H-1,2,3-triazol-4-yl}-7H-pyrrolo[2,3-d]pyrimidine], the pIC50 is 5.00 to 6.00 in assay [2], 5.00 to 6.00 in assay [3] and under 5.00 in assay [4].
